Where “and” joins values, the source holds several entries; their conditions need not be identical. Identical values can stand only once.
Key:
TNF-α [1] = assay: Second animal study: TNF-α in skin homogenates (ELISA); format: in vivo, BALB/c mice
Text: (§1) In both studies, typical features of psoriasis, namely erythema, scaling, and skin thickness, were induced by the application of 5% w/w imiquimod (IMQ) cream on the dorsal skin of BALB/c mice over a period of 6 consecutive days. Animals that developed psoriasis-like symptoms were used for studying the efficacy of the fenoldopam topical compositions. In the fenoldopam-treated groups, the animals received imiquimod only for the first two days. From the third day of the study, the animals received imiquimod and fenoldopam for the next four days. First Animal Study: The different treatment groups of mice used in the first animal study were as following: the SHAM group in the study represents mice which were shaven on the dorsal side without any treatment; negative control group represents the typical psoriatic model induced by imiquimod 5% (IMQ); positive control group represents the mice induced with psoriasis by imiquimod and then treated with the marketed steroid betamethasone valerate (IMQ BMV); and treatment groups represent the mice induced with psoriasis by imiquimod and then treated with a topical dose of 1 mg/cm^2 fenoldopam using different compositions of fenoldopam, such as solution (IMQ FD), water-washable ointment (IMQ WB 45/55), or anhydrous gel (IMQ AG BHT) compositions.
(§2) The second animal study was conducted in order to test additional topical compositions of fenoldopam with different strengths (0.01%, 0.1% and 1% of fenoldopam), as well as the effect of systemic administration of fenoldopam. […]
(§3) The skin homogenates obtained from mice of the different groups were analyzed using ELISA for quantification of IL-17, IL-23, TNF-α, and IL-22 levels, as the selected interleukins are the typical inflammatory markers of psoriasis.

IL-22 = assay: Second animal study: IL-22 in skin homogenates (ELISA); format: in vivo, BALB/c mice
Text: as §1, §2, §3

IL-17 [2] = assay: Second animal study: IL-17 in skin homogenates (ELISA); format: in vivo, BALB/c mice
Text: as §1, §2, §3

[3] = tested on: IMQ-induced psoriasis model; assay: First animal study: IMQ-induced psoriasis, phenotype and PASI scoring; format: in vivo, BALB/c mice
Text: (§4) The effect of topical compositions on the treatment of psoriasis has been tested in two animal studies. In both studies, typical features of psoriasis, namely erythema, scaling, and skin thickness, were induced by the application of 5% w/w imiquimod (IMQ) cream on the dorsal skin of BALB/c mice over a period of 6 consecutive days. Animals that developed psoriasis-like symptoms were used for studying the efficacy of the fenoldopam topical compositions. In the fenoldopam-treated groups, the animals received imiquimod only for the first two days. From the third day of the study, the animals received imiquimod and fenoldopam for the next four days. […]
Psoriatic area and severity index (PASI) scoring has been analyzed to determine the efficacy of the fenoldopam compositions of the present invention with appropriate controls as part of the study. FIG. 11 depicts PASI scoring including body weight, erythema, scaling, and skin thickness determined during the study. […]

[4] = tested on: IMQ-induced psoriasis model; assay: Second animal study: histopathology (H&E) of skin; format: in vivo, BALB/c mice; settings: skin collected on the 7th day
Text: as §1, with “BHT) compositions. […]” for “BHT) compositions.”

IL-23 [5] = assay: Second animal study: IL-23 in skin homogenates (ELISA); format: in vivo, BALB/c mice
Text: as §1
The second animal study was conducted in order to test additional topical compositions of fenoldopam with different strengths (0.01%, 0.1% and 1% of fenoldopam), as well as the effect of systemic administration of fenoldopam. The different groups of mice used in the second animal study were as following: the SHAM group in the study represents mice which were shaven on the dorsal side without any treatment; negative control group represents the typical psoriatic model induced by imiquimod 5% (IMQ); positive control group represents the mice induced with psoriasis by imiquimod and then treated with the marketed steroid betamethasone valerate (IMQ BMV); and treatment groups represent the mice induced with psoriasis by imiquimod and then treated with a topical dose of various compositions of fenoldopam: water-washable base (IMQ_WB45/55-0.01%, IMQ_WB45/55-0.1%, IMQ_WB45/55-1% or IMQ_WB45/55_1% No citric acid), or oleaginous ointment composition (IMQ_OB 0.01%, IMQ_OB 0.1% or IMQ_OB […]). An additional group of mice received systemic Fenoldopam by intraperitoneal injection (IMQ_FD_IP).
as §3

TNF-α [6] = assay: First animal study: TNF-α in skin homogenates (ELISA); format: in vivo, BALB/c mice; settings: for Level of TNF-α: vs. IMQ group
Text: as §1, with “The effect of topical compositions on the treatment of psoriasis has been tested in two animal studies. In both” for “In both”
(§5) An IMQ-induced psoriasis model reproduces biochemical and histopathological parameters characteristic of human psoriatic lesions. Topical application of the IMQ cream increased levels of cytokines such as IL-23, TNF-α, and IL-17 in the treated skin tissues. The skin homogenates obtained from mice of different groups were analyzed using ELISA for quantification of IL-17, IL-23, and TNF-α, levels as the selected interleukins are the typical inflammatory markers of psoriasis. […] The effect of fenoldopam was as effective as the reference topical treatment with the marketed steroid.

[7] = tested on: IMQ-induced psoriasis model; assay: Second animal study: IMQ-induced psoriasis, phenotype and PASI scoring; format: in vivo, BALB/c mice; settings: for Psoriasis symptoms (phenotypic images: erythema, scaling, skin thickness): compared to negative control
Text: as §1, §2

IL-17 [8] = assay: First animal study: IL-17 in skin homogenates (ELISA); format: in vivo, BALB/c mice; settings: for Level of IL-17: vs. IMQ group
Text: as §1, with “The effect of topical compositions on the treatment of psoriasis has been tested in two animal studies. In both” for “In both”
as §5

IL-23 [9] = assay: First animal study: IL-23 in skin homogenates (ELISA); format: in vivo, BALB/c mice; settings: for Level of IL-23: vs. IMQ group
Text: as §1, with “The effect of topical compositions on the treatment of psoriasis has been tested in two animal studies. In both” for “In both”
as §5

[10] = tested on: IMQ-induced psoriasis model; assay: First animal study: histopathology (H&E) of dorsal skin; format: in vivo, BALB/c mice; settings: vs. IMQ-treated group
Text: as §4

[11] = Fenoldopam stability in solutions at different pH after 72 hours (Mass spectrometry); format: physicochemical
Method: FIGS. 1a-1e depict the effect of pH on fenoldopam stability. FIGS. 1a-e depict fenoldopam stability in solutions at different pH levels as determined by Mass Spectra (MS). Fenoldopam samples at a pH of 2.5 (FIG. 1a) and samples which were adjusted to a pH of 3.6 (FIG. 1b), 6.6 (FIG. 1c) and 7.2 (FIG. 1d) with NaOH were maintained for 72 hours, after which MS analysis was performed. FIG. 1e depicts the possible degradation products of fenoldopam obtained following exposure to a pH above 4.
Additional fenoldopam samples (Samples A3-D3) were maintained at a pH of 2.5, 3.6, 6.6 and 7.2 without adjustment back to pH 2.5 and were analyzed after 72 hours by HPLC at 225 nm and Mass spectrometry (MS).

[12] = Stability of fenoldopam in solution at different pH values (HPLC, UV detector 225 nm); format: physicochemical
Method: In order to evaluate the stability of fenoldopam in solutions maintained at various pHs above 4 and further solutions that were further adjusted back to an acidic pH, the following experiment was conducted. Fenoldopam mesylate was first dissolved in buffer phosphate at pH 2.5, in a concentration of 0.1 mg/mL (sample A). The solution was then divided into 5 samples:
Sample A: remains at pH 2.5
Sample B: pH was adjusted to pH 3.6 with NaOH.
Sample C: pH was adjusted to pH 6.6 with NaOH.
Sample D: pH was adjusted to pH 7.2 with NaOH.
Sample E: pH was adjusted to pH 9.3 with NaOH.
All samples were then analyzed by HPLC and UV detector at 225 nm. Table 1 represents the results obtained by the HPLC analysis conducted with the different fenoldopam samples.

CCCCC(=O)O[C@]1(C(=O)CO)[C@@H](C)C[C@H]2[C@@H]3CCC4=CC(=O)C=C[C@]4(C)[C@@]3(F)[C@@H](O)C[C@@]21C [BMV, betamethasone valerate]
Fold difference in TNF-α levels (↓, vs. IMQ) (TNF-α [1]; listed as IMQ_BMV): 2.21 ↓ fold | Fold difference in TNF-α levels (↓, vs. IMQ) (TNF-α [1]; listed as positive control): 2.21 fold | Fold difference in IL-22 levels (↓, vs. IMQ) (IL-22; listed as IMQ_BMV): 1.55 ↓ fold | Fold difference in IL-22 levels (↓, vs. IMQ) (IL-22; listed as positive control): 1.55 fold | Fold difference in IL-17 levels (↓, vs. IMQ) (IL-17 [2]; listed as IMQ_BMV): 1.43 ↓ fold | Fold difference in IL-17 levels (↓, vs. IMQ) (IL-17 [2]; listed as positive control): 1.43 fold | Psoriatic symptoms (phenotypic images of dorsal skin) ([3]; IMQ-treated mice, topical treatment for four days, 1 mg/cm^2 fenoldopam): amelioration of psoriatic symptoms | PASI scores over the treatment period ([3]; scale of 0-4, vs. negative control): declines in PASI scores | Histopathology (H&E): psoriatic features [4]: ameliorated all of the above-mentioned parameters | Decline in IL-23 levels compared to the negative control (IL-23 [5]; listed as IMQ_BMV): decline in IL-23 levels | Fold difference in IL-23 levels (↓, vs. IMQ) (IL-23 [5]; listed as IMQ_BMV): 1.57 ↓ fold | Fold difference in IL-23 levels (↓, vs. IMQ) (IL-23 [5]; listed as positive control): 1.57 fold | Decrease in TNF-α levels in comparison with the IMQ group (TNF-α [6]; first animal study): 2.75 fold | Level of TNF-α (TNF-α [6]): inhibited | Psoriasis symptoms (phenotypic images: erythema, scaling, skin thickness) [7]: remission of the psoriasis symptoms | Psoriasis symptoms (phenotypic images: erythema, scaling, skin thickness) ([7]; listed as IMQ_BMV): amelioration of psoriatic symptoms | Decrease in IL-17 levels in comparison with the IMQ group (IL-17 [8]; first animal study): 2.74 fold | Level of IL-17 (IL-17 [8]): inhibited | Decrease in IL-23 levels in comparison with the IMQ group (IL-23 [9]; first animal study): 2.02 fold | Level of IL-23 (IL-23 [9]): inhibited | Histopathology (H&E): psoriatic features [10]: decline in the intensity of psoriatic features

Oc1ccc(C2CNCCc3c2cc(O)c(O)c3Cl)cc1 (centres unmarked) [Fenoldopam, 6-chloro-2,3,4,5-tetrahydro-1-(4-hydroxyphenyl)-[1H]-3-benzazepine-7,8-diol, methane sulfonate]
Stability by MS analysis ([11]; pH of 2.5 and 3.6, after 3 days): stable after 3 days and showed a single peak | Stability by MS analysis ([11]; pH of 6.6 and 7.2, after 3 days): formation of several peaks after 3 days | Level of TNF-α (TNF-α [6]): inhibited | Level of IL-17 (IL-17 [8]): inhibited | Level of IL-23 (IL-23 [9]): inhibited | RRT-0.9 (%) ([12]; Sample B1: pH 3.6 for 12 hours, then back to pH 2.5 for additional 5 hours): 0.9% | RRT-0.9 (%) ([12]; Sample B2: pH 3.6 for 12 hours, then back to pH 2.5 for additional 48 hours): 0.9% | RRT-0.9 (%) ([12]; Sample B3: pH 3.6 for 72 hours without adjustment back to pH 2.5): 1.0% | RRT-0.9 (%) ([12]; Sample B: pH 3.6 for 12 hours, 0.1 mg/mL, room temperature, protected from light): 0.9% | RRT-0.9 (%) ([12]; Sample C1: pH 6.6 for 12 hours, then back to pH 2.5 for additional 5 hours): 4.0% | RRT-0.9 (%) ([12]; Sample C2: pH 6.6 for 12 hours, then back to pH 2.5 for additional 48 hours): 4.0% | fenoldopam degraded ([12]; Sample C3: 72 hours at pH 6.6): 18% | RRT-0.9 (%) ([12]; Sample C3: pH 6.6 for 72 hours without adjustment back to pH 2.5): 17.5% | RRT-0.9 (%) ([12]; Sample C: pH 6.6 for 12 hours): 4.9% | RRT-0.9 (%) ([12]; Sample D1: pH 7.2 for 12 hours, then pH 2.5 for additional 5 hours): 11.6% | RRT-0.9 (%) ([12]; Sample D2: pH 7.2 for 12 hours, then back to pH 2.5 for additional 48 hours): 11.5% | fenoldopam degraded ([12]; Sample D3: 72 hours at pH 7.2): 50% | RRT-0.9 (%) ([12]; Sample D3: pH 7.2 for 72 hours without adjustment back to pH 2.5): 49.8% | RRT-0.9 (%) ([12]; Sample D: pH 7.2 for 12 hours): 15.8% | Fenoldopam, (%) ([12]; Sample E1: pH 9.3 for 12 hours, then pH 2.5 for additional 5 hours): 2% | Fenoldopam, (%) ([12]; Sample E2: pH 9.3 for 12 hours, then pH 2.5 for additional 48 hours): 2.2% | Fenoldopam, (%) ([12]; Sample E3: pH 9.3 for 72 hours without adjustment back to pH 2.5): No main peak | Fenoldopam, (%) ([12]; Sample E: pH 9.3 for 12 hours): No main peak | RRT-0.9 impurity ([12]; Samples B, B1, B2 (12 hours at pH 3.6, then pH 2.5) and B3 (72 hours at pH 3.6)): less than 1% | RRT-0.9 impurity ([12]; Samples C, C1 and C2 (12 hours at pH 6.6 followed by adjustment back to pH 2.5)): 4% | minor peak of fenoldopam ([12]; Samples E, E1, E2 and E3 (pH 9.3)): ~2% | Appearance of solution ([12]; pH 3.6): pH 3.6 - Clear | Appearance of solution ([12]; pH 6.6): pH 6.6 - yellowish | Appearance of solution ([12]; pH 7.2): pH 7.2 - yellowish | Appearance of solution ([12]; pH 9.3): pH 9.3- yellowish

CC(C)Cn1cnc2c(N)nc3ccccc3c21 [IMQ, imiquimod]
Fold difference in TNF-α levels (↑, vs. Sham) (TNF-α [1]): 2.08 fold and 2.08 ↑ fold | Fold difference in IL-22 levels (↑, vs. Sham) (IL-22): 1.36 fold and 1.36 ↑ fold | Fold difference in IL-17 levels (↑, vs. Sham) (IL-17 [2]): 1.63 fold and 1.63 ↑ fold | Fold difference in IL-23 levels (↑, vs. Sham) (IL-23 [5]): 1.55 fold and 1.55 ↑ fold | Increase in the TNF-α level compared to the SHAM group (TNF-α [6]; first animal study): 8.42 fold | PASI score for erythema, scaling, and thickness on the 6th day [7]: about 3 | Elevation of IL-17 levels compared to the SHAM group (IL-17 [8]; first animal study): 5 fold | Increase of IL-23 levels compared to SHAM group (IL-23 [9]; first animal study): 2.30 fold

Reference: patent US11612607B2, “Fenoldopam topical formulations for treating skin disorders” (TARO PHARMACEUTICAL INDUSTRIES LTD., priority 2016, dated 2023)
